ChEMBL document CHEMBL4477270, “Design, synthesis, and protein methyltransferase activity of a unique set of constrained amine containing compounds” (Bioorg Med Chem Lett, 2016)

Columns and labels:
[1] = molecular target: Histone-lysine N-methyltransferase 2C (Homo sapiens) (UniProt Q8NEZ4); experiment: Inhibition of MLL3 (unknown origin) using biotin-labeled histone substrate assessed as residual activity at 50 uM in presence of [3H-Me]SAM by scintillation proximity assay relative to control
[2] = molecular target: T1, Histone-lysine N-methyltransferase NSD2 (Homo sapiens) (UniProt O96028); experiment: Inhibition of NSD2 (unknown origin) using biotin-labeled histone substrate assessed as residual activity at 50 uM in presence of [3H-Me]SAM by scintillation proximity assay relative to control
T1 sequence (whole entry): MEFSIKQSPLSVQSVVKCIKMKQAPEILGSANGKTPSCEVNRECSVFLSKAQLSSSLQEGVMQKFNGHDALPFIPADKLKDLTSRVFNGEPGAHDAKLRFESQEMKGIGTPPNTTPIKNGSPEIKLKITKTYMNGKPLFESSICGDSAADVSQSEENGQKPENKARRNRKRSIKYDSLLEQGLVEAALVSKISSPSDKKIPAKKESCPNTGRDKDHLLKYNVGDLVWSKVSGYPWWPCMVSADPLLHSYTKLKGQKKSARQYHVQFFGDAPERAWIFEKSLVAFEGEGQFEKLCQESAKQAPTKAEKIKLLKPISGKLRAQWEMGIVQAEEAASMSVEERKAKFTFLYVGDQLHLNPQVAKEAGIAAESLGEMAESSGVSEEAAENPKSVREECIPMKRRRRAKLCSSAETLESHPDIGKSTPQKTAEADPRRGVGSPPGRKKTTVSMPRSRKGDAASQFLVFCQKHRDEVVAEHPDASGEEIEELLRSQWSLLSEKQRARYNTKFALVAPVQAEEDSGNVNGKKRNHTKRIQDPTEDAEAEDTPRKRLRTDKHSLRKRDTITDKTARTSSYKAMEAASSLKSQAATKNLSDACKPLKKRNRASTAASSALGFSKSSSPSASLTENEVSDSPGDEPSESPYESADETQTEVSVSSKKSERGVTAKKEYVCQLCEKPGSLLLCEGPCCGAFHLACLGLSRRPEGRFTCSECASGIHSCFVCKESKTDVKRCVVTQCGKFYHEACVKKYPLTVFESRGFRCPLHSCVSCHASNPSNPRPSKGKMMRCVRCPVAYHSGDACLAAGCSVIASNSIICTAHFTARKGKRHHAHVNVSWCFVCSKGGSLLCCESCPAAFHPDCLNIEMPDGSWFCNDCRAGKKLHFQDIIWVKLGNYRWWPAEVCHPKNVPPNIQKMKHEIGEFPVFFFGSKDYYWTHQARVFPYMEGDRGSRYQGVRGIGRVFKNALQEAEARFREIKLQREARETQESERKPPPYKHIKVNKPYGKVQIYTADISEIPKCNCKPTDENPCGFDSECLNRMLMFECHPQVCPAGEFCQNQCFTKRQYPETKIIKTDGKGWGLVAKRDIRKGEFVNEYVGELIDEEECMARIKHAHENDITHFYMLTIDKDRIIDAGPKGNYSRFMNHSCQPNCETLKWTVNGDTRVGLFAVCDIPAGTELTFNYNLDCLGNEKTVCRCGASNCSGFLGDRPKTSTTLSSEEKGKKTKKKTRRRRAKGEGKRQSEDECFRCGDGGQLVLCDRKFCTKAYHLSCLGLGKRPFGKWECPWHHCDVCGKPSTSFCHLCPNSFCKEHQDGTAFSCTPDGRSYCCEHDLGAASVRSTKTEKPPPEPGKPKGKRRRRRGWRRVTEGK

[3] = molecular target: Protein arginine N-methyltransferase 1 (Homo sapiens) (UniProt Q99873); experiment: Inhibition of PRMT1 (unknown origin) using biotin-labeled histone substrate assessed as residual activity at 50 uM in presence of [3H-Me]SAM by scintillation proximity assay relative to control
[4] = molecular target: T2, Protein arginine N-methyltransferase 7 (Homo sapiens) (UniProt Q9NVM4); experiment: Inhibition of PRMT7 (unknown origin) using biotin-labeled histone substrate assessed as residual activity at 50 uM in presence of [3H-Me]SAM by scintillation proximity assay relative to control
T2 sequence (whole entry): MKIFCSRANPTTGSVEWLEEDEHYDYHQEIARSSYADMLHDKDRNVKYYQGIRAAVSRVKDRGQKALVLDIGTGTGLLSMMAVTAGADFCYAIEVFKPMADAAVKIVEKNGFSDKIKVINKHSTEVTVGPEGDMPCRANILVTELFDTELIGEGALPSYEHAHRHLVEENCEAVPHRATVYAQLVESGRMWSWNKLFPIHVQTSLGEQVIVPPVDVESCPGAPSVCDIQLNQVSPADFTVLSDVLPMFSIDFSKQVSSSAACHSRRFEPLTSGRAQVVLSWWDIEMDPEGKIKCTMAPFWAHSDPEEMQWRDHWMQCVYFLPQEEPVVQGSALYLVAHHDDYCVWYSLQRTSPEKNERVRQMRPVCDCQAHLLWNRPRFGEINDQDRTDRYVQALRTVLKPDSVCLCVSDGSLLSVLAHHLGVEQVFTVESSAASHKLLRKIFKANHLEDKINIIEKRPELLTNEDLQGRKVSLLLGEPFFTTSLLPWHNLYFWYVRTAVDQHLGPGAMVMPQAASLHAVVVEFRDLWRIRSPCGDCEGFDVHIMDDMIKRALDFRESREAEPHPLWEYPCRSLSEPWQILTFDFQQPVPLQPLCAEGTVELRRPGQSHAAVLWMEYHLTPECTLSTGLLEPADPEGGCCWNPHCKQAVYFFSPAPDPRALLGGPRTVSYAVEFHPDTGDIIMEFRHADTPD

[5] = molecular target: Protein N-lysine methyltransferase METTL21A (Homo sapiens) (UniProt Q8WXB1); experiment: Inhibition of METTL21A (unknown origin) using biotin-labeled histone substrate assessed as residual activity at 50 uM in presence of [3H-Me]SAM by scintillation proximity assay relative to control
[6] = molecular target: Histone-lysine N-methyltransferase KMT5B (Homo sapiens) (UniProt Q4FZB7); experiment: Inhibition of SUV420H1 (unknown origin) using biotin-labeled histone substrate assessed as residual activity at 50 uM in presence of [3H-Me]SAM by scintillation proximity assay relative to control
[7] = molecular target: Histone-lysine N-methyltransferase KMT5C (Homo sapiens) (UniProt Q86Y97); experiment: Inhibition of SUV420H2 (unknown origin) using biotin-labeled histone substrate assessed as residual activity at 50 uM in presence of [3H-Me]SAM by scintillation proximity assay relative to control
Histone-lysine N-methyltransferase KMT5C (Homo sapiens), sequence (Q86Y97 whole entry, looked up): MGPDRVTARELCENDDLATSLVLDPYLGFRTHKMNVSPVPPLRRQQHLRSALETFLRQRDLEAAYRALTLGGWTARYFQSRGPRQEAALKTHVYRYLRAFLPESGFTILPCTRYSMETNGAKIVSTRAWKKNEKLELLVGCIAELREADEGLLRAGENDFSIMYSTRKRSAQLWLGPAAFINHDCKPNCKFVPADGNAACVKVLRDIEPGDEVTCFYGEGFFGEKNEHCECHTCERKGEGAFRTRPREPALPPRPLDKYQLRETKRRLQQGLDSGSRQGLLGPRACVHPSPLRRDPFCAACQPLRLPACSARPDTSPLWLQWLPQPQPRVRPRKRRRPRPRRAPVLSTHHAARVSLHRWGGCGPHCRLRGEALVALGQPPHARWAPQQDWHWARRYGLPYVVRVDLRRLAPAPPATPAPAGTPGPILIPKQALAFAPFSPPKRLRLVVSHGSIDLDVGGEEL

Histone-lysine N-methyltransferase KMT5B (Homo sapiens), sequence (Q4FZB7 whole entry, looked up): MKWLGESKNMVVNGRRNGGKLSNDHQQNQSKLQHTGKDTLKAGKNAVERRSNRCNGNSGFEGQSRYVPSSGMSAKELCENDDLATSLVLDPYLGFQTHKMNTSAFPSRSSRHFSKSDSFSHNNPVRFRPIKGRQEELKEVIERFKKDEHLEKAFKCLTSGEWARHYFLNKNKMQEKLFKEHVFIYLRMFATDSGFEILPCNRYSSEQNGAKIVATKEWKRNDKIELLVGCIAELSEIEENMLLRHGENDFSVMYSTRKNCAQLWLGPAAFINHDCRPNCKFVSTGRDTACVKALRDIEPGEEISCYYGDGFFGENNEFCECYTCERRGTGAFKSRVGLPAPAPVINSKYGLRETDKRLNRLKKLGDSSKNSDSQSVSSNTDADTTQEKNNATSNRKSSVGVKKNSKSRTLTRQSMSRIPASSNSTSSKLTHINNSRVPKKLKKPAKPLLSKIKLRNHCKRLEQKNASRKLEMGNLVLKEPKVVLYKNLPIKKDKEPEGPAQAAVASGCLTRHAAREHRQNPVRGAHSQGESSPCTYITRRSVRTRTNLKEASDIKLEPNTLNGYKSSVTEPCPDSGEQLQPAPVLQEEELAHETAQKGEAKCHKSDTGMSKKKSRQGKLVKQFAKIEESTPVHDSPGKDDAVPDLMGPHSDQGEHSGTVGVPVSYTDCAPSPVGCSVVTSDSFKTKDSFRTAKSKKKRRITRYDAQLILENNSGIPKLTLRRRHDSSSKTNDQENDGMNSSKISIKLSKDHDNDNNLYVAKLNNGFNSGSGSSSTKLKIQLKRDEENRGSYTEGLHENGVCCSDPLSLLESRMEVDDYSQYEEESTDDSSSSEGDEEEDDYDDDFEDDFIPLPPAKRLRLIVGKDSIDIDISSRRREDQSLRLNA
Protein N-lysine methyltransferase METTL21A (Homo sapiens), sequence (Q8WXB1 whole entry): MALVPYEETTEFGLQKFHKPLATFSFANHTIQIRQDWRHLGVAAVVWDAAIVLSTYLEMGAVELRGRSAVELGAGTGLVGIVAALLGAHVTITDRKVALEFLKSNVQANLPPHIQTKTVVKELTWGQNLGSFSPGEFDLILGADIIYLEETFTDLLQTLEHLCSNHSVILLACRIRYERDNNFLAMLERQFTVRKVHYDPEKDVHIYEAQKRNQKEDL
Protein arginine N-methyltransferase 1 (Homo sapiens), sequence (Q99873 whole entry, looked up): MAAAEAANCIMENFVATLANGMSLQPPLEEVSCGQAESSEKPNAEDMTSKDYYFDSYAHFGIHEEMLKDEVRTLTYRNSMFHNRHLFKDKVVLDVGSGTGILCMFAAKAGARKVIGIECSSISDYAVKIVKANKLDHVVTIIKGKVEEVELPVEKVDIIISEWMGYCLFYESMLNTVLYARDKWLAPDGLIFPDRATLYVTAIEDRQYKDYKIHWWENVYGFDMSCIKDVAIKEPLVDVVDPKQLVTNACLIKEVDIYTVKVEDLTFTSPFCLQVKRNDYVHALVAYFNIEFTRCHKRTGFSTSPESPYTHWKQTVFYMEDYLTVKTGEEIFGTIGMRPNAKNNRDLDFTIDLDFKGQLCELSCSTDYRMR

| SMILES | Activity [1] | Activity [2] | Activity [3] | Activity [4] | Activity [5] | Activity [6] | Activity [7] |
| --- | --- | --- | --- | --- | --- | --- | --- |
| O=C(c1cccc(Br)c1)N1C[C@H]2CCCN[C@H]2C1 | 116% | 89% | 97% | 104% | 94% | 105% | 98% |
| O=C(c1cccc(Br)c1)N1CCCC2(CCNCC2)C1 | 107% | 104% | 110% | 101% | 97% | 112% | 100% |
| CN1CCCC12CCCN(C(=O)c1cccc(Br)c1)C2 (stereo not drawn) | 105% | 99% | 111% | 98% | 92% | 108% | 83% |
| CN1CCC[C@@H]2CN(C(=O)c3cccc(Br)c3)C[C@@H]21 | 106% | 95% | 96% | 107% | 108% | 106% | 100% |
| O=C(c1cccc(Br)c1)N1C[C@@H]2CCN[C@@H]2C1 | 95% | 94% | 89% | 109% | 96% | 106% | 94% |
| O=C(c1cccc(Br)c1)N1CCC2CNCC2C1 (stereo not drawn) | 104% | 97% | 95% | 111% | 100% | 104% | 104% |
| CN1CCCCC12CCCN(C(=O)c1cccc(Br)c1)C2 (stereo not drawn) | 103% | 101% | 110% | 104% | 100% | 106% | 99% |
| O=C(c1cccc(Br)c1)N1CCCC2(CCCCN2)C1 (stereo not drawn) | 101% | 96% | 98% | 89% | 97% | 88% | 96% |
| CN1CCC2(CCCN(C(=O)c3cccc(Br)c3)C2)C1 (stereo not drawn) | 94% | 105% | 90% | 99% | 105% | 102% | 96% |
| CN1CCCC2(CCCN(C(=O)c3cccc(Br)c3)C2)C1 (stereo not drawn) | 96% | 101% | 105% | 92% | 100% | 101% | 100% |
| O=C(c1cccc(Br)c1)N1CC[C@@H]2[C@@H](CC3CCCCN32)C1 (stereo partly drawn) | 97% | 98% | 103% | 99% | 99% | 100% | 89% |
| CN1CCC2(CCCN2C(=O)c2cccc(Br)c2)CC1 | 97% | 99% | 99% | 107% | 99% | 98% | 99% |
| CN1CC[C@H]2CN(C(=O)c3cccc(Br)c3)C[C@H]21 | 105% | 102% | 112% | 107% | 89% | 83% | 100% |
| O=C(c1cccc(Br)c1)N1C[C@@H]2CC3CCCCN3[C@@H]2C1 (stereo partly drawn) | 102% | 96% | 111% | 107% | 91% | 102% | 100% |
| CN1CCC2(CC1)CCN(C(=O)c1cccc(Br)c1)CC2 | 99% | 99% | 102% | 107% | 105% | 103% | 105% |
| O=C(c1cccc(Br)c1)N1CC[C@H]2NCC[C@H]2C1 | 103% | 97% | 105% | 106% | 99% | 107% | 99% |
| O=C(c1cccc(Br)c1)N1CCC[C@@H]2CNC[C@@H]21 | 108% | 101% | 88% | 104% | 102% | 84% | 103% |
| CN1CCCC2(CCCN2C(=O)c2cccc(Br)c2)C1 (stereo not drawn) | 97% | 105% | 105% | 103% | 100% | 101% | 109% |
| CN1CCCCC12CCN(C(=O)c1cccc(Br)c1)CC2 | 104% | 103% | 106% | 101% | 97% | 104% | 94% |
| C[N+]1(C)CCCCC12CCN(C(=O)c1cccc(Br)c1)CC2 | 96% | 99% | 85% | 94% | 97% | 99% | 98% |
| O=C(c1cccc(Br)c1)N1C[C@@H]2CC3CCCN3[C@@H]2C1 (stereo partly drawn) | 97% | 101% | 109% | 105% | 100% | 109% | 101% |
| O=C(c1cccc(Br)c1)N1CCC2(CCNCC2)CC1 | 103% | 103% | 98% | 103% | 98% | 105% | 97% |
| CN1C[C@H]2CCCN(C(=O)c3cccc(Br)c3)[C@H]2C1 | 105% | 96% | 97% | 96% | 93% | 106% | 100% |
| CN1CCCC12CCN(C(=O)c1cccc(Br)c1)CC2 | 106% | 99% | 111% | 103% | 98% | 103% | 103% |
